3 molecules from patent US20250099557A1, “ANTIBIOTIC PHARMACEUTICAL COMPOSITION CAPABLE OF SUBCUTANEOUS ADMINISTRATION” (SHANGHAI BAO PHARMACEUTICALS CO., LTD., priority 2021, published 2025) can be followed below.

Data set [1] in a line: Compatibility study of HAase and antibiotic in solution: appearance of the solution. The class given is physicochemical. The settings on record: 8 solutions of antibiotic (two concentrations) with HAase 150-6000 units/ml in physiological saline. On the procedure: (§1) The compatibility of HAase and an antibiotic was studied by preparing a solution comprising the two substances. A dry Meropenem power for injection was dissolved in physiological saline to give a concentration of 5 mg/ml and 50 mg/ml, and then HAase was added to give a final concentration of 150, 500, 2000, and 6000 units/ml respectively. After preparation, the solution was left to stand at room temperature for 15 min. The appearance of the solution was observed, and the concentration of HAase was determined.
(§2) The compatibility of HAase and an antibiotic was studied by preparing a solution comprising the two substances. A dry Ceftriaxone sodium power for injection was dissolved in physiological saline to give a concentration of 50 mg/ml and 250 mg/ml, and then HAase was added to give a final concentration of 150, 500, 2000, and 6000 units/ml respectively. After preparation, the solution was left to stand at room temperature for 15 min. The appearance of the solution was observed, and the concentration of HAase was determined.
(§3) The compatibility of HAase and an antibiotic was studied by preparing a solution comprising the two substances. A dry Azithromycin power for injection was dissolved in physiological saline to give a concentration of 10 mg/ml and 100 mg/ml, and then HAase was added to give a final concentration of 150, 500, 2000, and 6000 units/ml respectively. After preparation, the solution was left to stand at room temperature for 15 min. The appearance of the solution was observed, and the concentration of HAase was determined.
(§4) The compatibility of HAase and an antibiotic was studied by preparing a solution comprising the two substances. A dry Cefradine powder for injection was dissolved in physiological saline to give a concentration of 50 mg/ml and 250 mg/ml, and then HAase was added to give a final concentration of 150, 500, 2000, and 6000 units/ml respectively. After preparation, the solution was left to stand at room temperature for 15 min. The appearance of the solution was observed, and the concentration of HAase was determined.
(§5) The compatibility of HAase and an antibiotic was studied by preparing a solution comprising the two substances. A dry Teicoplanin powder for injection was dissolved in physiological saline to give a concentration of 10 mg/ml and 70 mg/ml, and then HAase was added to give a final concentration of 150, 500, 2000, and 6000 units/ml respectively. After preparation, the solution was left to stand at room temperature for 15 min. The appearance of the solution was observed, and the concentration of HAase was determined.
The compatibility of HAase and an antibiotic was studied by preparing a solution comprising the two substances. A dry Ceftazidime powder for injection was dissolved in physiological saline to give a concentration of 20 mg/ml and 200 mg/ml, and then HAase was added to give a final concentration of 150, 500, 2000, and 6000 units/ml respectively. After preparation, the solution was left to stand at room temperature for 15 min. The appearance of the solution was observed, and the concentration of HAase was determined.
The compatibility of HAase and an antibiotic was studied by preparing a solution comprising the two substances. A dry Ertapenem power for injection was dissolved in physiological saline to give a concentration of 30 mg/ml and 300 mg/ml, and then HAase was added to give a final concentration of 150, 500, 2000, and 6000 units/ml respectively. After preparation, the solution was left to stand at room temperature for 15 min. The appearance of the solution was observed, and the concentration of HAase was determined.
The compatibility of HAase and an antibiotic was studied by preparing a solution comprising the two substances. A dry Polymyxin B powder for injection was dissolved in physiological saline to give a concentration of 50,000 units/ml and 250,000 units/ml, and then HAase was added to give a final concentration of 150, 500, 2000, and 6000 units/ml respectively.

In data set [2] the target is T1, HAase (Homo sapiens, UniProt P38567).
T1 construct: made in house
T1 sequence (P38567 36-482): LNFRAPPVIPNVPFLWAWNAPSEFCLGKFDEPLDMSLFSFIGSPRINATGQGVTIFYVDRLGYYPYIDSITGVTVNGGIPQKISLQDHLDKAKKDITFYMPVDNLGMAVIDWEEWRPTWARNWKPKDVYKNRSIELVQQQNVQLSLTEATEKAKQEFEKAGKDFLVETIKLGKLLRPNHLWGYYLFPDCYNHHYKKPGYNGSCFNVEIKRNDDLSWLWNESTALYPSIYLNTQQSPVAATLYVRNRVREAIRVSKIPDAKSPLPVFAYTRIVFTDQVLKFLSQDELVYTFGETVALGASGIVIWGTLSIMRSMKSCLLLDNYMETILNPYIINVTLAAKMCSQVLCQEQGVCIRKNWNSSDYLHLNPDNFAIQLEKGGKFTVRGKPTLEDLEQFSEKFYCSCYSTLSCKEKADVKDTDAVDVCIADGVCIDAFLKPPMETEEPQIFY
Briefly: Compatibility study of HAase and antibiotic in solution: HAase activity. The class given is biochemical. The conditions noted are these: 15 min room temperature; for Final concentration of HAase (units/ml) 150: HAase added to 150 units/ml; for Final concentration of HAase (units/ml) 500: HAase added to 500 units/ml; for Final concentration of HAase (units/ml) 2000: HAase added to 2000 units/ml; for Final concentration of HAase (units/ml) 6000: HAase added to 6000 units/ml; for interference with the activity of HAase: antibiotic and HAase in physiological saline. On the procedure:
“HAase activity refers to the ability of HAase to catalytically cleave hyaluronic acid. The Chinese Pharmacopoeia provides a method for determining the HAase activity, indirectly by measuring the amount of remaining higher-molecular-weight hyaluronic acid substrate after the enzyme is allowed to catalytically cleave hyaluronic acid at 37° C. for 30 min. A standard reference solution can be used in the assay to determine the relative activity (in units) of any HAase. In-vitro assays for the determination of HAase are known in the art. Exemplary assays include micro-turbidimetric assay described below, which indirectly measures the cleavage of hyaluronic acid by HAase by detecting an insoluble precipitate formed when uncleaved hyaluronic acid binds to serum albumin. The reference standard can be used, for example, to generate a standard curve, so as to determine the activity of the tested HAase in units.
as §1, §2, §3, §4, §5
The compatibility of HAase and an antibiotic was studied by preparing a solution comprising the two substances. A dry Ceftazidime powder for injection was dissolved in physiological saline to give a concentration of 20 mg/ml and 200 mg/ml, and then HAase was added to give a final concentration of 150, 500, 2000, and 6000 units/ml respectively. After preparation, the solution was left to stand at room temperature for 15 min.

The target in data set [3] is T1, HAase. The description is as above. The class given is biochemical. The settings on record: antibiotic 50,000 units/ml in physiological saline; HAase added to 150 units/ml; 15 min room temperature.
The mark [4] stands for this setting: antibiotic 10 mg/ml in physiological saline.
The mark [5] stands for this setting: antibiotic 100 mg/ml in physiological saline.
Setting [6] is: antibiotic 5 mg/ml in physiological saline.
[7] abbreviates: antibiotic 50 mg/ml in physiological saline.
The mark [8] stands for this setting: antibiotic 50,000 units/ml in physiological saline.
Where [9] appears, read: antibiotic 250,000 units/ml in physiological saline.

As for `CC[C@H]1OC(=O)[C@H](C)[C@@H](O[C@H]2C[C@@](C)(OC)[C@@H](O)[C@H](C)O2)[C@H](C)[C@@H](O[C@@H]2O[C@H](C)C[C@H](N(C)C)[C@H]2O)[C@](C)(O)C[C@@H](C)CN(C)[C@H](C)[C@@H](O)[C@]1(C)O` [Azithromycin], the “appearance of the solution” value in data set [1] is “clear and transparent”. For the same molecule, in data set [2] (setting [4]), the “Final concentration of HAase (units/ml) 150” value stood at 152 units/ml, the “Final concentration of HAase (units/ml) 500” value came out at 482 units/ml, the “Final concentration of HAase (units/ml) 2000” value is 1651 units/ml and the “Final concentration of HAase (units/ml) 6000” value was found to be 6140 units/ml. In data set [2] (setting [5]), the “Final concentration of HAase (units/ml) 150” value was 140 units/ml, the “Final concentration of HAase (units/ml) 500” value is 500 units/ml, the “Final concentration of HAase (units/ml) 2000” value is given as 1760 units/ml and the “Final concentration of HAase (units/ml) 6000” value stood at 5818 units/ml. The “interference with the activity of HAase” value in data set [2] is on record as “does not interfere with the activity of HAase”.

Take `C[C@@H](O)[C@H]1C(=O)N2C(C(=O)O)=C(S[C@@H]3CN[C@H](C(=O)N(C)C)C3)[C@H](C)[C@H]12` [Meropenem]: the “appearance of the solution” value in data set [1] was “clear and transparent”. In data set [2] (setting [6]), the “Final concentration of HAase (units/ml) 150” value is on record as 150 units/ml, the “Final concentration of HAase (units/ml) 500” value was 511 units/ml, the “Final concentration of HAase (units/ml) 2000” value is 1979 units/ml and the “Final concentration of HAase (units/ml) 6000” value is on record as 6271 units/ml. In addition, in data set [2] (setting [7]), the “Final concentration of HAase (units/ml) 150” value is recorded as 145 units/ml, the “Final concentration of HAase (units/ml) 500” value worked out at 491 units/ml, the “Final concentration of HAase (units/ml) 2000” value was found to be 1984 units/ml and the “Final concentration of HAase (units/ml) 6000” value amounted to 6121 units/ml. The “interference with the activity of HAase” value in data set [2] is given as “does not interfere with the activity of HAase”.

Take Polymyxin B: the “Final concentration of HAase (units/ml) 150” value in data set [3] is given as 149 units/ml. Besides, the “appearance of the solution” value in data set [1] was “clear and transparent”. In addition, in data set [2] (setting [8]), the “Final concentration of HAase (units/ml) 500” value was found to be 488 units/ml, the “Final concentration of HAase (units/ml) 2000” value was 2126 units/ml and the “Final concentration of HAase (units/ml) 6000” value is recorded as 5899 units/ml. In data set [2] (setting [9]), the “Final concentration of HAase (units/ml) 150” value turned out to be 151 units/ml, the “Final concentration of HAase (units/ml) 500” value stood at 501 units/ml, the “Final concentration of HAase (units/ml) 2000” value was 2014 units/ml and the “Final concentration of HAase (units/ml) 6000” value is 6090 units/ml. The “interference with the activity of HAase” value in data set [2] is reported as “does not interfere with the activity of HAase”.
